Measurements as given in patent publication US12545654B2 (STEMSYNERGY THERAPEUTICS, INC., priority 2020, dated 2026).

Each compound was assayed on N-myc protein (assay: In-cell immunostaining assay for decrease of N-myc protein level in neuroblastoma cells). Conditions: human neuroblastoma cell lines (Kelly, IMR32, SK-N-BE(2)); treated overnight or up to 3 days; N-myc signal normalized over total protein; read-out: Activity (EC50 for decreasing N-myc protein level).
Type: cell-based
Procedure: Human neuroblastoma cell lines were obtained from either Millipore Sigma, St. Louis, MO (Kelly cells) or American Type Culture Collection, Manassas, VA (IMR32 and SK-N-BE(2) cells). Cells were cultured in RPMI1640 medium (Corning, New York, NY), supplemented with 10% fetal bovine serum, 100 unit/mL penicillin and 100 μg/mL streptomycin (Corning, New York, NY) at 37 degree Celsius with 5% CO2 in air atmosphere. Cells cultured in flat clear bottom, black 96-well plates (Corning, New York, NY) were treated with different concentrations of a compound of the invention, which was dissolved in the culture media (200 μL/well), overnight or up to 3 days. Cells were fixed with 4% paraformaldehyde (in Phosphate-Buffered Saline or PBS, 100 μL/well) for 30 minutes at room temperature. Cells were briefly washed three times with PBS afterwards, and then treated with PBS containing 0.1% Triton X-100 (100 μL/well) for 30 minutes at room temperature. For […], cells were further treated with PBS containing 0.01% IRDye 700DX NHS Ester (LI-COR Biosciences, Lincoln, NE. 100 μL/well) for 30 minutes at room temperature. Cells were again washed three times with PBS, and then treated with a Tris-buffered saline solution with 0.1% Tween 20 (TBST) and 5% non-fat milk (50 μL/well) for 1 hour at room temperature. Cells were then treated with TBST with 5% non-fat milk (50 μL/well) containing a mouse anti N-Myc antibody (Clone B8.4.B, 1:500 dilution, Santa Cruz Biotechnology, Santa Cruz, CA), or a combination of a rabbit anti-Histone H3 (phospho S10) antibody (Clone EPR17246, 1:10000 dilution, abcam, Cambridge, MA) and a mouse anti-Histone H3 antibody (Clone 1G1, 1:250 dilution, Santa Cruz Biotechnology, Santa Cruz, CA) overnight at 4 degree Celsius in the dark. Cells were washed three times with TBST, and then treated with TBST with 5% non-fat milk (50 μL/well) containing an IRDye 800CW donkey anti-mouse IgG antibody (1:1000 dilution, LI-COR Biosciences, Lincoln, NE) for N-myc staining, or IRDye® 800CW donkey anti-rabbit IgG and IRDye 680RD donkey anti-mouse IgG antibodies (1:1000 dilution, LI-COR Biosciences, Lincoln, NE) for Histone H3 (phospho S10) and Histone H3 staining, incubated for 1 hour at room temperature in the dark. Cells were then washed four times with TBST and the plate was scanned using an Odyssey 9120 Imaging System (LI-COR Biosciences, Lincoln, NE). Signals for N-myc, total protein, Histone H3 (phospho S10), and Histone H3 were obtained from the images using the ImageStudio software (Version 4.0.21, LI-COR Biosciences, Lincoln, NE). Normalized signals for N-myc (over total protein), and Histone H3 (phospho S10) (over Histone H3) were plotted in Prism 7 software (GraphPad Software, San Diego, CA). A four-parameter dose-response curve was fitted using a variable slope model and the EC50 was calculated in Prism 7 software (GraphPad Software, San Diego, CA).
In the case of `COCc1nc(NC(=O)C2(C(=O)Nc3ccc(Cl)c(F)c3)CC2)sc1C(=O)Nc1cc(C(F)(F)F)ccc1Cl` [SSTA-0262, N-(4-chloro-3-fluorophenyl)-N-(5-((2-chloro-5-(trifluoromethyl)phenyl)carbamoyl)-4-(methoxymethyl)thiazol-2-yl)cyclopropane-1,1-dicarboxamide], the EC50 is reported as 250 to 1000 nM.
With `Cc1nc(NC(=O)C2(C(=O)Nc3cc(Cl)cc(C(F)(F)F)c3)CC2)sc1C(=O)Nc1cc(C(F)(F)F)ccc1Cl` [SSTA-0251, N-(3-chloro-5-(trifluoromethyl)phenyl)-N-(5-((2-chloro-5-(trifluoromethyl)phenyl)carbamoyl)-4-methylthiazol-2-yl)cyclopropane-1,1-dicarboxamide] the EC50 was 250 to 1000 nM.
In the case of `Cc1nc(NC(=O)C2(C(=O)Nc3ccc(Cl)c(F)c3)CC2)sc1C(=O)Nc1cc(C(F)(F)F)ccc1Cl` [SSTA-0236, N-(4-chloro-3-fluorophenyl)-N-(5-((2-chloro-5-(trifluoromethyl)phenyl)carbamoyl)-4-methylthiazol-2-yl)cyclopropane-1,1-dicarboxamide], the EC50 is reported as 250 to 1000 nM.
For `O=C(Nc1cc(C(F)(F)F)ccc1Cl)c1sc(NC(=O)C2(C(=O)Nc3ccc(F)cc3)CC2)nc1C(F)(F)F` [SSTA-0217, N-(5-((2-chloro-5-(trifluoromethyl)phenyl)carbamoyl)-4-(trifluoromethyl)thiazol-2-yl)-N-(4-fluorophenyl)cyclopropane-1,1-dicarboxamide], the EC50 was 250 to 1000 nM.
`Cc1nc(NC(=O)C2(C(=O)Nc3cc(C(F)(F)F)ccc3Cl)CC2)sc1C(=O)Nc1cc(C(F)(F)F)ccc1Cl` [SSTA-0250, N-(2-chloro-5-(trifluoromethyl)phenyl)-N-(5-((2-chloro-5-(trifluoromethyl)phenyl)carbamoyl)-4-methylthiazol-2-yl)cyclopropane-1,1-dicarboxamide] showed an EC50 of 250 to 1000 nM.
Compound “N-(5-((2-chloro-5-(trifluoromethyl)phenyl)carbamoyl)-4-methylthiazol-2-yl)-N-(3-fluoro-5-(trifluoromethyl)phenyl)cyclopropane-1,1-dicarboxamide [SSTA-0233]” has an EC50 of 250 to 1000 nM.
`COc1cc(NC(=O)C2(C(=O)Nc3nc(C)c(C(=O)Nc4cc(C(F)(F)F)ccc4Cl)s3)CC2)cc(C(F)(F)F)c1` [SSTA-0234, N-(5-((2-chloro-5-(trifluoromethyl)phenyl)carbamoyl)-4-methylthiazol-2-yl)-N-(3-methoxy-5-(trifluoromethyl)phenyl)cyclopropane-1,1-dicarboxamide] showed an EC50 of 250 to 1000 nM.
`Cc1nc(NC(=O)C2(C(=O)Nc3ccc(F)cc3)CC2)oc1C(=O)Nc1cccc(C(F)(F)F)c1` [SSTA-0190, N-(4-fluorophenyl)-N-(4-methyl-5-((3-(trifluoromethyl)phenyl)carbamoyl)oxazol-2-yl)cyclopropane-1,1-dicarboxamide] was tested, and the EC50 was greater than 1000 nM.
Compound `Cc1nc(NC(=O)C2(C(=O)Nc3ccc(F)cc3)CC2)sc1C(=O)Nc1cc(C(F)(F)F)ccc1Cl` [SSTA-0152, N-(5-((2-chloro-5-(trifluoromethyl)phenyl)carbamoyl)-4-methylthiazol-2-yl)-N-(4-fluorophenyl)cyclopropane-1,1-dicarboxamide] has an EC50 of 250 to 1000 nM.
`Cc1nc(NC(=O)C2(C(=O)Nc3ccccc3Cl)CC2)sc1C(=O)Nc1cc(C(F)(F)F)ccc1Cl` [SSTA-0170, N-(5-((2-chloro-5-(trifluoromethyl)phenyl)carbamoyl)-4-methylthiazol-2-yl)-N-(2-chlorophenyl)cyclopropane-1,1-dicarboxamide] was tested, and the EC50 was greater than 1000 nM.
`Cc1nc(NC(=O)C2(C(=O)Nc3ccc(F)c(F)c3)CC2)sc1C(=O)Nc1cc(C(F)(F)F)ccc1Cl` [SSTA-0238, N-(5-((2-chloro-5-(trifluoromethyl)phenyl)carbamoyl)-4-methylthiazol-2-yl)-N-(3,4-difluorophenyl)cyclopropane-1,1-dicarboxamide] gave an EC50 of 250 to 1000 nM.
Compound `Cc1nc(NC(=O)C2(C(=O)Nc3cc(F)ccn3)CC2)sc1C(=O)Nc1cc(C(F)(F)F)ccc1Cl` [SSTA-0252, N-(5-((2-chloro-5-(trifluoromethyl)phenyl)carbamoyl)-4-methylthiazol-2-yl)-N-(4-fluoropyridin-2-yl)cyclopropane-1,1-dicarboxamide] has an EC50 greater than 1000 nM.
`O=C(Nc1cc(C(F)(F)F)ccc1Cl)c1sc(NC(=O)C2(C(=O)Nc3cc(F)cc(C(F)(F)F)c3)CC2)nc1C1CC1` [SSTA-0264, N-(5-((2-chloro-5-(trifluoromethyl)phenyl)carbamoyl)-4-cyclopropylthiazol-2-yl)-N-(3-fluoro-5-(trifluoromethyl)phenyl)cyclopropane-1,1-dicarboxamide] showed an EC50 of less than 250 nM.
`Cc1nc(NC(=O)C2(C(=O)Nc3cc(F)cc(Cl)c3)CC2)sc1C(=O)Nc1cc(C(F)(F)F)ccc1Cl` [SSTA-0237, N-(5-((2-chloro-5-(trifluoromethyl)phenyl)carbamoyl)-4-methylthiazol-2-yl)-N-(3-chloro-5-fluorophenyl)cyclopropane-1,1-dicarboxamide] gave an EC50 of 250 to 1000 nM.
`O=C(Nc1cc(C(F)(F)F)ccc1Cl)c1sc(NC(=O)C2(C(=O)Nc3ccc(F)cc3)CC2)nc1C1CC1` [SSTA-0218, N-(5-((2-chloro-5-(trifluoromethyl)phenyl)carbamoyl)-4-cyclopropylthiazol-2-yl)-N-(4-fluorophenyl)cyclopropane-1,1-dicarboxamide] showed an EC50 of 250 to 1000 nM.
Work on `Cc1nc(NC(=O)C2(C(=O)Nc3ccc(F)cc3F)CC2)sc1C(=O)Nc1cc(C(F)(F)F)ccc1Cl` [SSTA-0248, N-(5-((2-chloro-5-(trifluoromethyl)phenyl)carbamoyl)-4-methylthiazol-2-yl)-N-(2,4-difluorophenyl)cyclopropane-1,1-dicarboxamide] yielded an EC50 greater than 1000 nM.
With `Cc1nc(-c2ccc(NC(=O)C3(C(=O)Nc4nc(C)c(C(=O)Nc5cc(C(F)(F)F)ccc5Cl)s4)CC3)cc2)no1` [SSTA-0229, N-(5-((2-chloro-5-(trifluoromethyl)phenyl)carbamoyl)-4-methylthiazol-2-yl)-N-(4-(5-methyl-1,2,4-oxadiazol-3-yl)phenyl)cyclopropane-1,1-dicarboxamide] the EC50 was greater than 1000 nM.
With `O=C(Nc1cccc(C(F)(F)F)c1)c1sc(NC(=O)C2(C(=O)Nc3ccc(F)cc3)CC2)nc1-c1ccccc1` the EC50 was greater than 1000 nM.
`COc1cc(F)cc(NC(=O)C2(C(=O)Nc3nc(C)c(C(=O)Nc4cc(C(F)(F)F)ccc4Cl)s3)CC2)c1` [SSTA-0241, N-(5-((2-chloro-5-(trifluoromethyl)phenyl)carbamoyl)-4-methylthiazol-2-yl)-N-(3-fluoro-5-methoxyphenyl)cyclopropane-1,1-dicarboxamide] gave an EC50 of 250 to 1000 nM.
`Cc1nc(NC(=O)C2(C(=O)Nc3cccc(C(F)(F)F)c3)CC2)sc1C(=O)Nc1cc(C(F)(F)F)ccc1Cl` [SSTA-0168, N-(5-((2-chloro-5-(trifluoromethyl)phenyl)carbamoyl)-4-methylthiazol-2-yl)-N-(3-(trifluoromethyl)phenyl)cyclopropane-1,1-dicarboxamide] gave an EC50 greater than 1000 nM.
`Cc1nc(NC(=O)C2(C(=O)Nc3ccc(F)cc3Cl)CC2)sc1C(=O)Nc1cc(C(F)(F)F)ccc1Cl` [SSTA-0247, N-(2-chloro-4-fluorophenyl)-N-(5-((2-chloro-5-(trifluoromethyl)phenyl)carbamoyl)-4-methylthiazol-2-yl)cyclopropane-1,1-dicarboxamide] gave an EC50 greater than 1000 nM.
For `O=C(Nc1ccc(Cl)c(Cl)c1)c1sc(NC(=O)C2(C(=O)Nc3ccc(F)cc3)CC2)nc1C(F)(F)F` [SSTA-0194, N-(5-((3,4-dichlorophenyl)carbamoyl)-4-(trifluoromethyl)thiazol-2-yl)-N-(4-fluorophenyl)cyclopropane-1,1-dicarboxamide], the EC50 was greater than 1000 nM.
Work on `O=C(Nc1cc(C(F)(F)F)ccc1Cl)c1sc(NC(=O)C2(C(=O)Nc3cc(F)cc(F)c3)CC2)nc1C1CC1` [SSTA-0263, N-(5-((2-chloro-5-(trifluoromethyl)phenyl)carbamoyl)-4-cyclopropylthiazol-2-yl)-N-(3,5-difluorophenyl)cyclopropane-1,1-dicarboxamide] yielded an EC50 of less than 250 nM.
In the case of `Cc1nc(NC(=O)C2(C(=O)Nc3ccc(F)cc3OC(C)C)CC2)sc1C(=O)Nc1cc(C(F)(F)F)ccc1Cl` [SSTA-0242, N-(5-((2-chloro-5-(trifluoromethyl)phenyl)carbamoyl)-4-methylthiazol-2-yl)-N-(4-fluoro-2-isopropoxyphenyl)cyclopropane-1,1-dicarboxamide], the EC50 is reported as greater than 1000 nM.
